Where two headings read alike, the source gives them in different places.
Columns and labels:
[1] = test system: Respiratory Syncytial Virus (RSV) long strain; experiment: microbe, parasite or virus in culture; format: cell-based; details: human respiratory syncytial virus, Tables A and B list compounds by EC50 band
Procedure, shortened: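 HEp-2 cells infected with 100 TCID50 virus per well, compounds in duplicate, 9-point 1/3 dilutions from 100 μM or 1 μM, 1% DMSO. After 5 days at 37 °C, cell viability (CPE protection) read by CCK-8 absorbance at 450 nm, 630 nm background.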

[2] = Cytotoxicity Determination (CCK-8, without addition of virus); format: cell-based; details: human, 50% cytotoxicity concentration (CC50)
Procedure, shortened: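 HEp-2 cells were seeded at 1,500 cells/well one day before compound addition. Compounds were tested without virus in duplicate over 7 points from 100 μM in 1/2 steps, with 1% final DMSO, 5 days at 37 °C, 5% CO2. Viability was read by CCK-8 after 3-4 hours.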

recombinant RSV complex = recombinant RSV complex (Human respiratory syncytial virus A, UniProt P28887); experiment: RSV Polymerase Inhibition Assay; format: biochemical
Sequence of recombinant RSV complex (P28887 whole entry): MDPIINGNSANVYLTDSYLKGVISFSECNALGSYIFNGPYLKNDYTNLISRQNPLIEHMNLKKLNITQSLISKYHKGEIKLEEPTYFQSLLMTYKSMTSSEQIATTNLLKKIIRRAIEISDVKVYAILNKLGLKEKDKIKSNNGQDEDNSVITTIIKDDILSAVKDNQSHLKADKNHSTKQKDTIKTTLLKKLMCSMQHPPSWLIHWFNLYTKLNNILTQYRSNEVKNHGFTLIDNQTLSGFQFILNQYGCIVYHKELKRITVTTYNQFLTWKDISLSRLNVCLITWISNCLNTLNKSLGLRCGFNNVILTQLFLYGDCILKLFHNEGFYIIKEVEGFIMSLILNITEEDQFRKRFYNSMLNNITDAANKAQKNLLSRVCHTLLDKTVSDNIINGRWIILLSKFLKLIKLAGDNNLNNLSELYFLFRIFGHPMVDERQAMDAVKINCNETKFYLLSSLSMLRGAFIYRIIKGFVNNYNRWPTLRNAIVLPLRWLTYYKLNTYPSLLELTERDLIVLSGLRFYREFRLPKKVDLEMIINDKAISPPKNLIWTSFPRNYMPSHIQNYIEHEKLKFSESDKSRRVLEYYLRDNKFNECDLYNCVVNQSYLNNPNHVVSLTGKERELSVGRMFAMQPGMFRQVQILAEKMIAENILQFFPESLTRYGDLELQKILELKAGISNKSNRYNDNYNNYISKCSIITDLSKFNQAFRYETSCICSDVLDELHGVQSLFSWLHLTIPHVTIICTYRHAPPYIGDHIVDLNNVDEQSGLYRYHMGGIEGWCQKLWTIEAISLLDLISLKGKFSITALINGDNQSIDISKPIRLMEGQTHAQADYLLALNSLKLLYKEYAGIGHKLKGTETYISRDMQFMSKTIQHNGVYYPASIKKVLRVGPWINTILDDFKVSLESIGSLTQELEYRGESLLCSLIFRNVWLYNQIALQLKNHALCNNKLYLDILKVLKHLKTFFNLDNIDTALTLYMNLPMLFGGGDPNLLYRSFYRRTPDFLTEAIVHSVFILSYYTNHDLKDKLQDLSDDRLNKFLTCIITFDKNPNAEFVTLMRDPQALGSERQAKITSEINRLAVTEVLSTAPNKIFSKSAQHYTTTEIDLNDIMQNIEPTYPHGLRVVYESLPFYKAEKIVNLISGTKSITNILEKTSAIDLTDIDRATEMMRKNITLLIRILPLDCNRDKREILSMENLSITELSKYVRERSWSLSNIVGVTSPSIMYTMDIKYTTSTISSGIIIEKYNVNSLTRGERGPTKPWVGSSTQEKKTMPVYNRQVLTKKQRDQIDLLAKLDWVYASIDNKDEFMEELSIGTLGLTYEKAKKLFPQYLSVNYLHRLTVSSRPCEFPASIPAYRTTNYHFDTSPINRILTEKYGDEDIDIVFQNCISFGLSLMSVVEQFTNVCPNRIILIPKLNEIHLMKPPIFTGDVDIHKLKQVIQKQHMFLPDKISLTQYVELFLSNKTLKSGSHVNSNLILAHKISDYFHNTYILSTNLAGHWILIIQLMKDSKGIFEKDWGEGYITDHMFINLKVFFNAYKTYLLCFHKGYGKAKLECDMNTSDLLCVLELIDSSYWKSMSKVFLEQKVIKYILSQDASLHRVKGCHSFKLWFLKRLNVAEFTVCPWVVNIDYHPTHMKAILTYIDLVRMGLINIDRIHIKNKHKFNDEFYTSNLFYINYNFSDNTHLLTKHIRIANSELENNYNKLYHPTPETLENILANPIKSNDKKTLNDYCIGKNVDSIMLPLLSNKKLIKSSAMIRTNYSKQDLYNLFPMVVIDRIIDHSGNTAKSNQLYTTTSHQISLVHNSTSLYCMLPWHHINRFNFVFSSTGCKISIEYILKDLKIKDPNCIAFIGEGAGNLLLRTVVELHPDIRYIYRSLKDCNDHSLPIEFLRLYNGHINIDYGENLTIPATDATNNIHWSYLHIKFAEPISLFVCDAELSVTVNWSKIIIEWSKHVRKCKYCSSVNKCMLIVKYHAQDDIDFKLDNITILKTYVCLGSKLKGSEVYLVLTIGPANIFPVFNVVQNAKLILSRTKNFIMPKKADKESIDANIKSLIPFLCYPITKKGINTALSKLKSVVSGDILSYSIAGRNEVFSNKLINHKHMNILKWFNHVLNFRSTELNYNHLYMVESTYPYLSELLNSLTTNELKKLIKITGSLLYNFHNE
Sequence of recombinant RSV complex (P03421 whole entry, further chain): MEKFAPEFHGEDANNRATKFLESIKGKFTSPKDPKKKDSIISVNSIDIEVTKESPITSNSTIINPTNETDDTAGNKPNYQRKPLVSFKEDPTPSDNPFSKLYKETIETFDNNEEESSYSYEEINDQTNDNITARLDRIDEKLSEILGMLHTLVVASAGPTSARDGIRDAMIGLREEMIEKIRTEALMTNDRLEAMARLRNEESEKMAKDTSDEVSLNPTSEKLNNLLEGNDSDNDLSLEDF
Procedure, shortened: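 10 nM recombinant RSV polymerase complex in Tris-HCl pH 7.5, 6 mM MgCl2 with RNA oligonucleotide template and radionucleotides, incubated 2 h at 30 °C with increasing inhibitor concentrations. Reaction stopped with EDTA; radiolabeled RNA product counted by scintillation.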

RSV replicon = experiment: microbe, parasite or virus in culture; format: cell-based; details: human respiratory syncytial virus, read-out: EC50, the concentration of the drug required for reducing RSV replicon RNA by 50%
[3] = HEp-2, 120 h, read-out: 50% effective concentration (EC50), HEp-2 cells infected with RSV long strain, 5 days, CCK-8 readout
[4] = 120 h, read-out: 50% effective concentration (EC50), HEp-2 cells infected with RSV long strain, 5 days, CCK-8 readout

COc1cc(C(=O)NCC(O)(c2cc(C(C)(C)NC(C)=O)cc(-c3ccc(F)c(Cl)c3)n2)C(F)(F)F)ccc1OCC(N)=O (stereo not shown) [Compound 612]
EC50 [1, 3]: < 1000 nM
CC50 at 5 days [2]: > 100000 nM
IC50 (recombinant RSV complex): < 1000 nM
EC50 (RSV replicon): < 1000 nM

COc1cc(C(=O)NCC(O)(c2cc(C(C)(N)CF)cc(-c3ccc(F)cc3)n2)C(F)(F)F)ccc1OC[C@@H](C)O (stereo partly shown) [Compound 614]
EC50 [1, 3]: < 1000 nM
CC50 at 5 days [2]: 10000 to 100000 nM
IC50 (recombinant RSV complex): < 1000 nM
EC50 (RSV replicon): < 1000 nM

COc1cc(C(=O)NCC(O)(c2cc(C(C)(N)CF)cc(-c3ccc(F)cc3)n2)C(F)(F)F)ccc1OCC(N)=O (stereo not shown) [Compound 615]
EC50 [1, 3]: < 1000 nM
CC50 at 5 days [2]: > 100000 nM
IC50 (recombinant RSV complex): < 1000 nM
EC50 (RSV replicon): < 1000 nM

COc1cc(C(=O)NCC(O)(c2cc(C(C)(C)NC(C)=O)cc(-c3ccc(F)cc3)n2)C(F)(F)F)ccc1OCC(N)=O (stereo not shown) [Compound 621]
EC50 [1, 3]: < 1000 nM
CC50 at 5 days [2]: > 100000 nM
IC50 (recombinant RSV complex): < 1000 nM
EC50 (RSV replicon): < 1000 nM

COc1cc(C(=O)NCC(O)(c2cc(C(C)(C)N)cc(-c3ccc(C#N)cc3)n2)C(F)(F)F)ccc1OCCO (stereo not shown) [Compound 623b]
EC50 [1, 3]: < 1000 nM
CC50 at 5 days [2]: > 100000 nM
IC50 (recombinant RSV complex): < 1000 nM
EC50 (RSV replicon): < 1000 nM

COc1cc(C(=O)NC[C@](O)(c2cc(C(C)(C)N)cc(-c3ccc(C#N)cc3)n2)C(F)(F)F)ccc1OC[C@@H](C)O [Compound 624b]
EC50 [1, 3]: < 1000 nM
CC50 at 5 days [2]: > 100000 nM
IC50 (recombinant RSV complex): < 1000 nM
EC50 (RSV replicon): < 1000 nM

COc1cc(C(=O)NC[C@@](O)(c2cc3c(c(-c4ccc(F)cc4)n2)OC[C@@]3(C)N)C(F)(F)F)ccc1OC[C@@H](C)O [Compound 630]
EC50 [1, 4]: < 1000 nM
CC50 at 5 days [2]: 10000 to 100000 nM
IC50 (recombinant RSV complex): < 1000 nM
EC50 (RSV replicon): < 1000 nM

COc1cc(C(=O)NC[C@](O)(c2cc3c(c(-c4ccc(F)cc4)n2)OCC3(C)CN)C(F)(F)F)ccc1OCCO (stereo partly shown) [Compound 633b]
EC50 [1, 3]: < 1000 nM
CC50 at 5 days [2]: 10000 to 100000 nM
IC50 (recombinant RSV complex): < 1000 nM
EC50 (RSV replicon): < 1000 nM

COc1cc(C(=O)NCC(O)(c2cc(C(C)(C)N)cc(-c3ccc(F)cc3)n2)C2CC2)ccc1OCCO (stereo not shown) [Compound 634]
EC50 [1, 3]: < 1000 nM
CC50 at 5 days [2]: > 100000 nM
IC50 (recombinant RSV complex): < 1000 nM
EC50 (RSV replicon): < 1000 nM

COc1cc(C(=O)NCC(O)(c2cc3c(c(-c4ccc(F)cc4)n2)OCC3(C)N)C(F)(F)F)cc2cccnc12 (stereo not shown) [Compound 635]
EC50 [1, 3]: < 1000 nM
CC50 at 5 days [2]: 10000 to 100000 nM
IC50 (recombinant RSV complex): < 1000 nM
EC50 (RSV replicon): < 1000 nM

COc1cc(C(=O)NCC(O)(c2cc(C(C)(C)N)cc(-c3ccc(F)c(Cl)c3)n2)C(F)(F)F)ccc1OCS(N)(=O)=O (stereo not shown) [Compound 637]
EC50 [1, 3]: 1000 to 50000 nM
CC50 at 5 days [2]: 10000 to 100000 nM
IC50 (recombinant RSV complex): < 1000 nM
EC50 (RSV replicon): < 1000 nM

COc1cc(C(=O)NCC(O)(c2cc3c(c(-c4ccc(F)c(Cl)c4)n2)OCC3(C)N)C(F)(F)F)ccc1OCCO (stereo not shown) [Compound 638]
EC50 [1, 3]: < 1000 nM
CC50 at 5 days [2]: 10000 to 100000 nM
IC50 (recombinant RSV complex): < 1000 nM
EC50 (RSV replicon): < 1000 nM

COc1cc(C(=O)NCC(O)(c2cc3c(c(-c4ccc(Cl)cc4)n2)OCC3(C)N)C(F)(F)F)ccc1OCCO (stereo not shown) [Compound 640]
EC50 [1, 4]: < 1000 nM
CC50 at 5 days [2]: 10000 to 100000 nM
IC50 (recombinant RSV complex): < 1000 nM
EC50 (RSV replicon): < 1000 nM

COc1cc(C(=O)NCC(O)(c2cc3c(c(-c4ccc(F)cc4)n2)OCC3(C)N)C(F)(F)F)cc2ccc(=O)[nH]c12 (stereo not shown) [Compound 642]
EC50 [1, 3]: < 1000 nM
CC50 at 5 days [2]: 10000 to 100000 nM
IC50 (recombinant RSV complex): < 1000 nM
EC50 (RSV replicon): < 1000 nM

COc1cc(C(=O)NCC(O)(c2cc(C(C)(C)N)cc(-c3ccc(F)cc3)n2)C(F)(F)F)cnc1OCCO (stereo not shown) [Compound 643]
EC50 [1, 3]: < 1000 nM
CC50 at 5 days [2]: > 100000 nM
IC50 (recombinant RSV complex): < 1000 nM
EC50 (RSV replicon): < 1000 nM

CC(C)(N)c1cc(-c2ccc(F)cc2)nc(C(O)(CNC(=O)c2ccc(OC3CC3)c(CO)c2)C(F)(F)F)c1 (stereo not shown) [Compound 644]
EC50 [1, 3]: < 1000 nM
CC50 at 5 days [2]: 10000 to 100000 nM
IC50 (recombinant RSV complex): < 1000 nM
EC50 (RSV replicon): < 1000 nM

COc1cc(C(=O)NCC(O)(c2cc3c(c(-c4ccc(C(F)(F)F)cc4)n2)OCC3(C)N)C(F)(F)F)ccc1OCCO (stereo not shown) [Compound 645]
EC50 [1, 3]: < 1000 nM
CC50 at 5 days [2]: 10000 to 100000 nM
IC50 (recombinant RSV complex): < 1000 nM
EC50 (RSV replicon): < 1000 nM

COc1cc(C(=O)NCC(O)(c2cc3c(c(-c4ccc(Cl)cc4)n2)OCC3(C)N)C(F)(F)F)ccc1CO[C@@H](C)O (stereo partly shown) [Compound 646]
EC50 [1, 3]: < 1000 nM
CC50 at 5 days [2]: 10000 to 100000 nM
IC50 (recombinant RSV complex): < 1000 nM
EC50 (RSV replicon): < 1000 nM

COc1cc(C(=O)NCC(O)(c2cc([C@]3(C)CCN3)cc(-c3ccc(F)cc3)n2)C(F)(F)F)ccc1OCCO (stereo partly shown) [Compound 650]
EC50 [1, 4]: < 1000 nM
CC50 at 5 days [2]: 10000 to 100000 nM
IC50 (recombinant RSV complex): < 1000 nM
EC50 (RSV replicon): < 1000 nM

Source: US11021444B2, “Antiviral compounds” (priority 2013, dated 2021)
